Read-outs that look alike come from different tables or passages of the source. Values belong to the molecule of their own block, whether it stands above or below them.
How the values were obtained:
MOLM-14 cells = assay: WST-1 cell proliferation assay, MOLM-14; format: cell-based, human
Description: (§1) Cell lines were seeded into 96-well plates the afternoon prior to treatment. Approximately 18 hours later, bis and mono-aziridine dimeric naphthoquinone compounds were semi-serially diluted in dimethyl sulfoxide (DMSO) and then growth medium, and added to cells. Plates were incubated for 72 hours prior to addition of WST-1 (Promega®). Plates were read after 4 additional hours of incubation at 37° C. using a Bio-Tek Synergy® HT plate reader (Bio-Tek®). Data were analyzed and graphed using GraphPad Prism® Software (Graph Pad®).
(§2) Primary AML cells from patients and cell lines were seeded into 96-well plates the afternoon prior to treatment. Eighteen hours later, amino-dimeric naphthoquinone Compounds 106, 101, and 114 were semi-serially diluted in dimethyl sulfoxide (DMSO) and then growth medium, and added to the cells. In order to quantitate proliferation of metabolically active cells, plates were incubated for 72 hours for cell lines and 48 hours for primary AML cells prior to addition of water-soluble tetrazolium (WST-1) (Clontech®). Plates were read after four additional hours of incubation at 37° C. using a Bio-Tek Synergy® HT plate reader (Bio-Tele®). Data were analyzed and graphed using GraphPad Prism® Software (GraphPad®). IC50 was defined as the concentration that decreases viable cell numbers by 50%. IC50 values were calculated as mean±standard deviation from at least two independent experiments. If availability of primary blasts was limited, the IC50 was obtained from a single experiment.
To investigate antiproliferative activity of amino-dimeric naphthoquinones against AML cells, an MTT-like cell proliferation assay was performed in the AML cell lines using WST-1 (water soluble tetrazolium salts; Promega®). MOLM-14 and AML-D cells, as well as normal hematopoietic bone marrow cells from a healthy donor, were exposed to a range of concentrations of Compound 101. Human leukemia cells were cultured in the presence of the compound for 72 hours (48 hours for primary cells) and WST-1 reagent was then added. The cells then were monitored for cell growth or the number of cells proliferating and the IC50 calculated. The IC50 is the concentration at which 50% of the cells are not proliferating compared to control cells treated with vehicle. See FIG. 2A, FIG. 2B, and FIG. 2C for representative graphs of these IC50 determinations.

MV4-11 cells = assay: WST-1 cell proliferation assay, MV4-11; format: cell-based, human
Description: as §1, §2

THP-1 cells = assay: WST-1 cell proliferation assay, THP-1; format: cell-based; details: Homo sapiens
Description: as §1, §2

[1] = Homo sapiens, MOLM-14, Table 9, cell proliferation, read-out: IC50 (μM) MOLM-14
[2] = Homo sapiens, MV4-11, Table 9, cell proliferation, read-out: IC50 (μM) MV411
[3] = Homo sapiens, MOLM-14, Table 1, cell proliferation, read-out: MOLM14 IC50
[4] = Homo sapiens, MOLM-14, Table 7, cell proliferation, read-out: IC50 (μM) MOLM-14
[5] = Homo sapiens, MV4-11, Table 1, cell proliferation, read-out: MV411 IC50
[6] = Homo sapiens, MV4-11, Table 7, cell proliferation, read-out: IC50 (μM) MV411
[7] = Homo sapiens, MOLM-14, Table 3, cell proliferation, read-out: MOLM14 IC50
[8] = Homo sapiens, MV4-11, Table 3, cell proliferation, read-out: MV411 IC50
[9] = Table 1, cell proliferation, read-out: MOLM14 IC50
[10] = Table 1, cell proliferation, read-out: MV411 IC50
[11] = Homo sapiens, MOLM-14, Table 2, cell proliferation, read-out: MOLM14 IC50
[12] = Homo sapiens, MV4-11, Table 2, cell proliferation, read-out: MV411 IC50
[13] = Table 2, cell proliferation, read-out: MOLM14 IC50
[14] = Table 2, cell proliferation, read-out: MV411 IC50

Molecule: O=C1C(C2=C(N3CCN(CCO)CC3)C(=O)c3ccccc3C2=O)=C(N2CCN(CCO)CC2)C(=O)c2ccccc21 [Compound 116]
IC50 (MOLM-14 cells; [1]): 1.17 µM | IC50 (MV4-11 cells; [2]): 1.65 µM

Molecule: CC(O)CNC1=C(C2=C(NCC(C)O)C(=O)c3ccccc3C2=O)C(=O)c2ccccc2C1=O (stereo not shown) [Compound 112]
IC50 (MOLM-14 cells; [7]): 1.49 ± 0.46 µM | IC50 (MV4-11 cells; [8]): 3.94 ± 2.23 µM

Molecule: O=C1C(NCCO)=C(C2=C(NCCO)C(=O)c3ccccc3C2=O)C(=O)c2ccccc21 [Compound 115]
IC50 (MOLM-14 cells; [1]): 0.15 ± 0.01 µM | IC50 (MV4-11 cells; [2]): 0.2 ± 0.02 µM

Molecule: 3-chloro-3′-hydroxy dimeric naphthoquinone [Compound 144, reference compound]
IC50 (MOLM-14 cells; [9]): 6.5 ± 0.28 µM | IC50 (MOLM-14 cells; Table 7, cell proliferation, read-out: IC50 (μM) MOLM-14): 6.3 µM | IC50 (MV4-11 cells; [10]): 3 ± 0.07 µM | IC50 (MV4-11 cells; Table 7, cell proliferation, read-out: IC50 (μM) MV411): 3 µM

Molecule: O=C1C(NCCO)=C(C2=C(NCCO)C(=O)c3cc(F)ccc3C2=O)C(=O)c2ccccc21 [Compound 105, 3,3′-bis(2-hydroxyethylamino)-6-fluoro-2,2′-binaphthyl-1,1′,4,4′-tetrone]
IC50 (MOLM-14 cells; [7]): 1.3 ± 0.23 µM | IC50 (MV4-11 cells; [8]): 2.05 ± 0.4 µM

Molecule: COc1ccc2c(c1)C(=O)C(NCCO)=C(C1=C(NCCO)C(=O)c3ccccc3C1=O)C2=O [Compound 104, 3,3′-bis(2-hydroxyethylamino)-6-methoxy-2,2′-binaphthalenyl-1,1′,4,4′-tetrone]
IC50 (MOLM-14 cells; [7]): 0.37 ± 0.17 µM | IC50 (MOLM-14 cells; [1]): 1.32 ± 0.23 µM | IC50 (MV4-11 cells; [8]): 1.16 ± 0.2 µM | IC50 (MV4-11 cells; [2]): 2.05 ± 0.4 µM

Molecule: O=C1C(C2=C(N3CCC(O)CC3)C(=O)c3ccccc3C2=O)=C(N2CCC(O)CC2)C(=O)c2ccccc21 [Compound 117]
IC50 (MOLM-14 cells; [1]): 4.3 ± 2.1 µM | IC50 (MV4-11 cells; [2]): 2.5 µM

Molecule: CC(=O)OCCNC1=C(C2=C(NCCOC(C)=O)C(=O)c3ccccc3C2=O)C(=O)c2ccccc2C1=O [Compound 119]
IC50 (MOLM-14 cells; [1]): 1 µM | IC50 (MV4-11 cells; [2]): 2.2 ± 0.7 µM

Molecule: CN(C)CCNC1=C(C2=C(NCCN(C)C)C(=O)c3ccccc3C2=O)C(=O)c2ccccc2C1=O [Compound 103, 3,3′-bis({[2-(dimethylamino)ethyl]amino})-[2,2′-binaphthalene]-1,1′,4,4′-tetrone]
IC50 (MOLM-14 cells; [11]): 0.12 µM | IC50 (MV4-11 cells; [12]): 0.49 µM

Molecule: 3-chloro-3′-(4-hydroxypiperidinyl)-2,2′-binaphthalenyl-1,1′,4,4′-tetrone [Compound 127]
IC50 (MOLM-14 cells; [9]): 3.6 ± 0.63 µM | IC50 (MV4-11 cells; [10]): 2.1 ± 0.56 µM

Molecule: CN(C)C1=C(C2=C(N(C)C)C(=O)c3ccccc3C2=O)C(=O)c2ccccc2C1=O [Compound 114, 3,3′-bis(dimethylamino)-[2,2′-binaphthalene]-1,1′,4,4′-tetrone]
IC50 (MV4-11 cells; Homo sapiens, MV4-11, Example 5 text, unit inferred, read-out: IC50 against MV4-11): 2.4 ± 0.3 µM

Molecule: CC(=O)OCCNC1=C(C2=C(NCCOC(C)=O)C(=O)c3ccccc3C2=O)C(=O)c2ccccc2C1=O [Compound 109, 3,3′bis-[(2-acyloxyethyl)amino]-2,2′-binaphthalenyl-1, -1′,4,4′-tetrone]
IC50 (MOLM-14 cells; [7]): 1 µM | IC50 (MV4-11 cells; [8]): 2.2 ± 0.74 µM

Molecule: O=C1C(Cl)=C(C2=C(N3CC3)C(=O)c3ccccc3C2=O)C(=O)c2ccccc21 [Compound 106, 3-(aziridin-1-yl)-3′-chloro-[2,2′-binaphthalene]-1,1′ 4,4′-tetrone]
IC50 (MOLM-14 cells; Homo sapiens, MOLM-14, read-out: IC50 MOLM-14): 3.9 ± 1 µM | IC50 (MOLM-14 cells; Homo sapiens, MOLM-14, read-out: IC50 MOLM-14 (n)): 3.9 ± 1 µM | IC50 (THP-1 cells; THP-1, read-out: IC50 THP1 (n)): 7700 ± 1300 nM | IC50 (THP-1 cells; THP-1, read-out: IC50 THP-1): 7700 ± 1300 nM

Molecule: CN(C)C1=C(C2=C(N(C)C)C(=O)c3ccccc3C2=O)C(=O)c2ccccc2C1=O [Compound 120, 3,3′-bis-(2-dimethylamino)-2,2′-biuaphthalenyl-1,1′,4,4′-tetrone]
IC50 (MOLM-14 cells; [11]): 2.8 ± 0.91 µM | IC50 (MOLM-14 cells; [4]): 2.9 µM | IC50 (MV4-11 cells; [12]): 2.15 ± 0.64 µM | IC50 (MV4-11 cells; [6]): 2.4 µM

Molecule: CN(CCO)C1=C(C2=C(N(C)CCO)C(=O)c3ccccc3C2=O)C(=O)c2ccccc2C1=O [Compound 107, 3,3′-bis-[(2-hydroxyethyl)(N-methyl)amino]-2,2′-binaphthalenyl-1,1′,4,4′-tetrone]
IC50 (MOLM-14 cells; [7]): 5.85 ± 0.64 µM | IC50 (MOLM-14 cells; [4]): 6.3 µM | IC50 (MV4-11 cells; [8]): 5.25 ± 0.35 µM | IC50 (MV4-11 cells; [6]): 5 µM

Molecule: O=C1C(C2=C(N3CCN(CCOCCO)CC3)C(=O)c3ccccc3C2=O)=C(N2CCN(CCOCCO)CC2)C(=O)c2ccccc21 [Compound 110, 3,3′-bis(4-(2-(2-hydroxyethoxy)ethyl)piperazin-1-yl)-[2,2′-binaphthalene]-1,1′,4,4′-tetrone]
IC50 (MOLM-14 cells; [7]): 1.9 ± 0.32 µM | IC50 (MV4-11 cells; [8]): 140 ± 0.91 µM

Molecule: CN(CCO)C1=C(C2=C(N(C)CCO)C(=O)c3ccccc3C2=O)C(=O)c2ccccc2C1=O [Compound 118]
IC50 (MOLM-14 cells; [1]): 5.8 ± 0.6 µM | IC50 (MV4-11 cells; [2]): 5.25 ± 0.3 µM

Molecule: COCCN(C)C1=C(C2=C(N(C)CCOC)C(=O)c3ccccc3C2=O)C(=O)c2ccccc2C1=O [Compound 108, 3,3′-bis-[(2-methoxyethyl)(N-methyl)amino]-2,2′-binaphthalenyl-1,1′,4,4′-tetrone]
IC50 (MOLM-14 cells; [7]): 5.55 ± 0.78 µM | IC50 (MOLM-14 cells; [4]): 6.1 µM | IC50 (MV4-11 cells; [8]): 5.5 ± 0.71 µM | IC50 (MV4-11 cells; [6]): 6 µM

Now from value to molecule:

IC50 (MOLM-14 cells; [3]): 2.2 µM | IC50 (MOLM-14 cells; [4]): 2.2 µM | IC50 (MV4-11 cells; [5]): 1.2 µM | IC50 (MV4-11 cells; [6]): 1.2 µM
Molecule: O=C1C(Cl)=C(C2=C(NCCO)C(=O)c3ccccc3C2=O)C(=O)c2ccccc21 [Compound 125, 3-chloro-3′-[(2-hydroxyethyl)amino]-2,2′-binaphthalenyl-1,1′,4,4′-tetrone]

IC50 (MOLM-14 cells; [3]): 3 ± 1.42 µM | IC50 (MOLM-14 cells; [4]): 3 µM | IC50 (MV4-11 cells; [5]): 2.4 ± 2 µM | IC50 (MV4-11 cells; [6]): 2.4 µM
Molecule: CN(C)C1=C(C2=C(Cl)C(=O)c3ccccc3C2=O)C(=O)c2ccccc2C1=O [Compound 123, 3-chloro-3′-(dimethylamino)-2,2′-binaphthalenyl-1,1′,4,4′-tetrone]

IC50 (MOLM-14 cells; [1]): 0.37 ± 0.17 µM | IC50 (MV4-11 cells; [2]): 1.16 ± 0.2 µM
Molecule: O=C1C(NCCO)=C(C2=C(NCCO)C(=O)c3cc(F)ccc3C2=O)C(=O)c2ccccc21 [Compound 137]

IC50 (MOLM-14 cells; [3]): 0.85 ± 0.25 µM | IC50 (MOLM-14 cells; [4]): 0.6 µM | IC50 (MV4-11 cells; [5]): 0.76 ± 0.36 µM | IC50 (MV4-11 cells; [6]): 0.5 µM
Molecule: O=C1C(Cl)=C(C2=C(N3CCN(CCO)CC3)C(=O)c3ccccc3C2=O)C(=O)c2ccccc21 [Compound 126, 3-chloro-3′-[(4-hydroxyethyl)piperazinyl]-2,2′-binaphthalenyl-1,1′,4,4′-tetrone]

IC50 (MOLM-14 cells; [3]): 2.8 ± 0.01 µM | IC50 (MOLM-14 cells; [4]): 2.8 µM | IC50 (MV4-11 cells; [5]): 1.3 ± 1 µM | IC50 (MV4-11 cells; [6]): 1.3 µM
Molecule: CN(C)CCN(C)C1=C(C2=C(Cl)C(=O)c3ccccc3C2=O)C(=O)c2ccccc2C1=O [Compound 124, 3-chloro-3′((2-(dimethylamino)ethyl)(methyl)amino)-[2,2′-binaphthalene]-1,1′,4,4′-tetrone]

IC50 (MOLM-14 cells; [4]): 7.1 µM | IC50 (MV4-11 cells; [6]): 5 µM
Molecule: O=C1C(Cl)=C(C2=C(Cl)C(=O)c3cc(Br)ccc3C2=O)C(=O)c2ccccc21 [Compound 139]

IC50 (MOLM-14 cells; [1]): 2.8 ± 0.9 µM | IC50 (MV4-11 cells; [2]): 2.2 ± 0.6 µM
Molecule: CN(C)C1=C(C2=C(N(C)C)C(=O)c3ccccc3C2=O)C(=O)c2ccccc2C1=O [Compound 135]

IC50 (MOLM-14 cells; [13]): 1.17 µM | IC50 (MV4-11 cells; [14]): 1.65 µM
Molecule: O=C1C(C2=C(N3CCN(CCO)CC3)C(=O)c3ccccc3C2=O)=C(N2CCN(CCO)CC2)C(=O)c2ccccc21 [Compound 121, 3,3′-bis[4-(2-hydroxyethyl)piperazin-1-yl]-4a,5a-dihydro-[2,2′-binaphthalene]-1,1′,4,4′-tetrone]

IC50 (MOLM-14 cells; [13]): 4.3 ± 2.12 µM | IC50 (MV4-11 cells; [14]): 2.5 µM
Molecule: O=C1C(C2=C(N3CCC(O)CC3)C(=O)c3ccccc3C2=O)=C(N2CCC(O)CC2)C(=O)c2ccccc21 [Compound 122, 3,3′-bis-(4-hydroxypiperidinyl)-2,2′-binaphthalenyl-1,1′,4,4′-tetrone]

— patent US11459313B2, “Aziridinyl and amino dimeric naphthoquinone compounds and use for acute myeloid leukemia” (University of Maryland, Baltimore, priority 2016, dated 2022)
